Results taken from patent US9364479B2, “Use of a receptor-type kinase modulator for treating polycystic kidney disease” (SYMPHONY EVOLUTION, INC., priority 2010, dated 2016).

How the values were obtained:
[1] = human, in vivo
[2] = system: HN5 human tumor xenograft; assay: HN5 xenograft, tumor growth; type: in vivo; conditions: Mus musculus; qd × 14
Protocol: The response of tumors to treatment was determined by comparing the mean tumor weight of the treatment group with the appropriate control group. Percentage inhibition of tumor growth was determined with the following formula: Percentage inhibition=100×[1−(Xf−Xo)/(Yf−Yo)], where Xf and Yf are the mean tumor weights of the treatment and control groups, respectively, on day f, and Xo and Yo are the mean tumor weights of treatment and control groups respectively, on day zero (staged tumor weights after grouping)

[3] = molecular target: KDR (Homo sapiens, UniProt P35968); assay: Luciferase-coupled chemiluminescence kinase assay; type: biochemical; parameters: residues D807-V1356 of human KDR, Proqinase; purchased Proqinase; conditions: ATP at Km
Protocol: Dose-response experiments were done using 10 different inhibitor concentrations in 384-well microtiter plates. The ATP concentration used for each assay was equivalent to the Km for each kinase.
A Luciferase-coupled chemiluminescence assay was used to measure EGFR and KDR (VEGFR2) activity. Kinase activity was measured as the percentage of ATP consumed following the kinase reaction using luciferase-luciferin-coupled chemiluminescence. Reactions were conducted in 384-well white, medium-binding microtiter plates (Greiner). […] The reaction mixture was incubated at room temperature for 4 h. Following the kinase reaction, a 20 μL aliquot of Kinase Glo (Promega) was added and luminescence signal was measured using a Victor2 plate reader (Perkin-Elmer). Total ATP consumption was limited to 50%.

[4] = molecular target: T1, Leukotriene D4, LTD4 (Homo sapiens, UniProt Q9Y271); assay: NovaScreen assay; type: binding; conditions: read-out: Inhibition, 10 μM XL-647
T1 construct: NovaScreen

[5] = system: Adrenergic, Beta, Non-selective; assay: NovaScreen assay; type: binding

T1 sequence (Q9Y271 whole entry): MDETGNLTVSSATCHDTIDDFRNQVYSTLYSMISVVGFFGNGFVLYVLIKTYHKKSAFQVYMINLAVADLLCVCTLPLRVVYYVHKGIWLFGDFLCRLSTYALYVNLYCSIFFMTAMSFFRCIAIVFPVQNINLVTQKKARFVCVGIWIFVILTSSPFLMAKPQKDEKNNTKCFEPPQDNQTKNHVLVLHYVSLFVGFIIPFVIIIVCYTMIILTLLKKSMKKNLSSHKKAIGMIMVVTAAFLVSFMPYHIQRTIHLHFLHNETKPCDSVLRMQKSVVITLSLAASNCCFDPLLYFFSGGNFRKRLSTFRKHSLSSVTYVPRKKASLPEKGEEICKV
KDR, sequence (P35968 807-1356): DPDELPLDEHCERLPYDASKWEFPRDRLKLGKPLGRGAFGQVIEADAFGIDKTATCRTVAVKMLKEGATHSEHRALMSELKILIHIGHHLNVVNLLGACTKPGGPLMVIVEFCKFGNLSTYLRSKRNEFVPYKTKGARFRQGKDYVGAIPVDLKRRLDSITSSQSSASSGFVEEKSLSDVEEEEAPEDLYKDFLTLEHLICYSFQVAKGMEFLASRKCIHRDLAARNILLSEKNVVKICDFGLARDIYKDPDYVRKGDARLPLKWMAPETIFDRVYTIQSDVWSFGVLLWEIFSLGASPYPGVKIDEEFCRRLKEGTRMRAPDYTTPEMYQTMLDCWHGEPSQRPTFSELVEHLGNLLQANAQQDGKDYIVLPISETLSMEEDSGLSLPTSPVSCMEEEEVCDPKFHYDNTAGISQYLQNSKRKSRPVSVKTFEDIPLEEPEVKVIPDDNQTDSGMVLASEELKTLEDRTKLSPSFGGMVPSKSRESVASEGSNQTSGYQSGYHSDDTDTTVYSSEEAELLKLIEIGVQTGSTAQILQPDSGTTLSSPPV

For COc1cc2c(Nc3ccc(Cl)c(Cl)c3F)ncnc2cc1OC[C@@H]1C[C@@H]2CN(C)C[C@@H]2C1 [XL-647, N-(3,4-dichloro-2-fluorophenyl)-7-({[(3aR,5r,6aS)-2-methyloctahydrocyclopenta[c]pyrrol-5-yl]methyl}oxy)-6-(methyloxy)quinazolin-4-amine], the “dose proportionality of AUC and Cmax, in words” value [1] was “generally increased in proportion with dose”, the ED50 [2] was less than 3 mg/kg and the IC50 [3] was 1.5 ± 0.2 nM. For the same compound, the inhibition at 10 µM [4] was -11.9% and the “Inhibition, 10 μM XL-647” value [5] was 18.01%.
